According to article PMC11245370, “3-Position Biaryl Endochin-like Quinolones with Enhanced Antimalarial Performance” (ACS Infectious Diseases, 2024):
Several values for one entry are separate records, joined by “and”; a condition that tells them apart may be missing. Equal entries are not always repeated. Where two headings read alike, the source gives them in different places.

How the values were obtained:
[1] = target: human liver cytochrome bc1 complex (Homo sapiens, UniProt P00156); experiment: Human cytochrome bc1 assay (liver mitochondrial preparation)
Method: All use of human tissue was approved by the OHSU IRB. Approximately 10 g of human liver tissue was obtained intraoperatively and placed in ice-cold PBS containing 5 mM glucose. [Note: The specimen was obtained from grossly normal tissue that was resected around the margins of a tumor as part of the standard surgical treatment for hepatic tumors.] Liver was homogenized using a razor blade followed by a Dounce homogenizer. HALT Protease Inhibitor Cocktail (Pierce) was added per the manufacturer’s instructions. A crude mitochondrial fraction was prepared by differential centrifugation as described in Renault et al.[35] The final pellet was resuspended in storage buffer (50 mM tricine, 100 mM KCl, 2 mM NaN, 2.0% dodecyl-beta-D-maltoside, 30% glycerol, pH 8.0). Aliquots of this mitochondrial preparation were frozen in a dry ice–ethanol bath and stored at −80 °C until use.
Two microliters of mitochondrial preparation was resuspended in the assay buffer (50 mM tricine, 100 mM KCl, 2 mM NaN3, 0.1% dodecyl-beta-D-maltoside). […] Antimycin A was dissolved in ethanol as a 1 mM stock. Decylubiquinone was reduced to decylubiquinol with an excess of NaBH4, and the excess NaBH4 was subsequently quenched with hydrochloric acid. […] The rate of the nonenzymatic reaction of cytochrome c and decylubiquinol was measured separately in the absence of mitochondrial preparation and found to be insignificant. […]

[2] = test system: P. falciparum atovaquone-resistant clinical isolate Tm90-C2B; experiment: SYBR Green I antiplasmodial assay, Tm90-C2B; type: cell-based; details: Plasmodium falciparum, TM90, 72 h, read-out: P. falciparum IC50 values, Tm90-C2B
Method: (§1) All of this information is stored in a database with information relating to chemical structure, physical chemical properties, cross resistance patterns, mammalian cell cytotoxicity, enzyme inhibitor profiles, and synthesis details. Pharmacological data and in vivo efficacy data are also stored in the database for molecules of particular interest. […] We synthesized the compound in an initial batch size of about 800 mg as described above. […] Fluorescence readings were captured with a fluorescence plate reader and processed by nonlinear regression analysis using the GraphPad Prism software to provide IC50 values for each determination. Stock solutions were freshly prepared daily in DMSO in glass vials.
(§2) Laboratory strains of P. falciparum were cultured in human erythrocytes by standard methods. The parasites were grown in culture medium with fresh human erythrocytes maintained at 2% hematocrit at 37 °C in low-oxygen conditions (5% O2, 5% CO2, 90% N2). […] Cultures were maintained at less than 10% parasitemia by transfer of infected cells to fresh erythrocytes and culture medium every 3 or 4 days.
(§3) SYBR green I assay. In vitro antiplasmodial activity was assessed using a published SYBR Green I fluorescence-based method.[20] The drugs were added to 96-well plates using twofold serial dilutions in complete medium. […] Asynchronous P. falciparum parasites were diluted with uninfected erythrocytes and added to the wells to give a final culture volume of 100 μL at 2% hematocrit and 0.2% parasitemia. […] The parasites were then lysed by adding 100 μL of SYBR green I lysis buffer containing 0.2 μL/ml SYBR green I dye (10,000×) in 20 mM Tris (pH 7.5), 5 mM EDTA, 0.008% (wt/vol) saponin, and 0.08% (v/v) Triton X-100. The plates were incubated at room temperature for an hour in the dark. […] If the IC50 value fell outside of the initially tested range, then the range was adjusted up or down, and the assay was repeated twice.

[3] = Metabolic stability in liver microsomes, rat; type: in vitro ADME; details: rat, pH 7.4
[4] = test system: P. yoelii blood-stage infection; details: for blood stage in vivo efficacy, 4 day Peters test results, NRD (nonrecrudescence dose) / blood stage in vivo efficacy, 4 day Peters test results, ED50 / blood stage in vivo efficacy, 4 day Peters test results, ED90: mice; for blood stage in vivo efficacy, 4 day Peters test results, NRD (nonrecrudescence dose): oral gavage days 1-4, followed to day 30; for blood stage in vivo efficacy, 4 day Peters test results, ED50 / blood stage in vivo efficacy, 4 day Peters test results, ED90: oral gavage days 1-4, parasitemia day 5, prodrugs dosed on molar equivalency to parent
Method: (§4) On day 5, a drop of blood was taken from the tail, and a blood smear was prepared, fixed with methanol, and stained with Giemsa. The operator then examined the stained smear microscopically to determine percent parasitemia. […] In this model, animals were inoculated exactly as for the 4 day test on day 0; however, drug was administered only on day 1, whereas smears were made on day 5 and again weekly thereafter for animals that remained aparasitemic. Animals that remained aparasitemic on day 30 were scored as cures.
The P. yoelii 4 day test monitors suppression of patent infection in female CF1 mice. The test began with the inoculation (iv) of parasitized erythrocytes (3.5 × 10^4P. yoelli) (from a donor animal) on the first day of the experiment (D0). […] Initially, the 3-biaryl-ELQs were tested at doses of 0.0025, 0.005, 0.01, 0.03, 0.1, 0.3, 1.0, and 10 mg/kg/day, including a vehicle-only (PEG400) control. After completion of drug treatment, a blood sample was collected (by pricking the tail vein) for determination of parasite burden beginning on the day after the final dose (D5). Percent parasitemia was assessed by direct microscopic analysis of Giemsa-stained blood smears. […] Animals with observable parasitemia following the experiment were euthanized; animals cleared of parasites from the bloodstream were observed daily with assessment of parasitemia performed weekly until day 30, at which point the animals were scored as cured of infection. […] Nonlinear regression analysis was used for objective determination of ED50’s and ED90’s from the accumulated data as well as the nonrecrudescence dose (NRD). The 4 day test protocol was reviewed and approved by the local IACUC board at the Portland VA Medical Center. Experiments were performed with four mice per group to ensure statistical accuracy.

[5] = test system: P. falciparum drug-sensitive D6 strain; experiment: SYBR Green I antiplasmodial assay, D6 strain; type: cell-based; details: Plasmodium falciparum, D6, 72 h, read-out: P. falciparum IC50 values, D6
Method: as §1, §2, §3

[6] = Metabolic stability in liver microsomes, human; type: in vitro ADME; details: human, pH 7.4
Method: (§5) […]. Samples were taken over the interval of 45 min and analyzed by LC–MS/MS for the presence of test compound. Ketanserin served as an internal standard for the metabolic rate of a drug with known intermediate stability. […].
(§6) The drug was incubated at 37 °C and 1 μM concentration in murine liver microsomes (Corning) for 45 min at a protein concentration of 0.5 mg/mL in potassium phosphate buffer at pH 7.4 containing 1.0 mM EDTA. The metabolic reaction was initiated by addition of NADPH and quenched with ice-cold acetonitrile at 0, 5, 15, 25, and 45 min.

[7] = Metabolic stability in liver microsomes, mouse; type: in vitro ADME; details: pooled mouse liver microsomes, pH 7.4; mouse liver microsomes 0.5 mg/mL, NADPH, 37 °C, 45 min, 1 μM
Method: as §5, §6

[8] = Pharmacokinetics after single dose of ELQ-598; type: in vivo; details: for k el / Tmax / AUC(0-inf) / Cmax / half-life: mouse plasma; for bioavailability: read-out: F (oral bioavailability); for Vd / CL/F / Vdarea/F / AUCratio (molar AUC ELQ-598/AUC ELQ-596): mouse; for Vd: read-out: Vdss
Method: Animals had free access to food and water during the study. Following drug administration, the animals were manually restrained at the designated time points, and 100 μL of blood was withdrawn from the facial vein for semiserial sampling into heparinized tubes. Blood samples were placed on ice and centrifuged (2000g, 5 min, 4 °C) to obtain plasma. The plasma was mixed with 10% formic acid (FA) in water [plasma/10% FA (v/v = 10:1)]. […] At the outset of the study, 18 animals were randomly separated into two different groups (po and iv) of nine animals each. Blood samples were taken from three animals at each time point such that the same group of the animals was sampled at […] throughout the experiment for both po and iv arms. […] Dichlofenac was used as an internal standard.
MW is the molecular weight. The terminal elimination rate constant kel was estimated by linear least-squares regression analysis of the terminal log-linear portion of the plasma concentration–time curves by the software.

[9] = test system: P. falciparum multidrug-resistant Dd2 strain; experiment: microbe, parasite or virus in culture; type: cell-based; details: Plasmodium falciparum, DD2, 72 h, read-out: P. falciparum IC50 values, Dd2
Method: as §1, §2, §3

[10] = HepG2 cytotoxicity / mitochondrial toxicity (TiterGlo ATP, galactose medium); details: human
[11] = test system: P. yoelii sporozoites (liver stage); experiment: Causal prophylaxis, sporozoite challenge in mice; details: 1.0 mg/kg single oral dose 1 h after 10,000 P. yoelii sporozoites iv; followed 30 days
Method: For this study, mice were inoculated with 10,000 P. yoelii sporozoites via tail vein injections, and drug was administered by gavage an hour later and only once. We monitored for the presence of blood-stage parasites as a measure of liver-stage infection.
Mice were inoculated with 10,000 sporozoites via tail vein injection of CF1 mice treated with or without drug (dissolved in PEG400) 1 h after inoculation. […] Additional monitoring for blood-stage infection was continued for a 30 day period to confirm true causal prophylaxis against P. yoelii challenge. […] Testing involved the use of four animals per group for statistical accuracy. […] A minimum of 5000 red blood cells were examined to establish blood-stage infection. Blood smears were fixed with methanol, stained with Giemsa, and viewed under oil immersion at 1000× magnification under standard light microscopy.

[12] = test system: P. yoelii blood-stage infection; experiment: Single-dose cure of blood-stage murine malaria; type: in vivo, Plasmodium yoelii
Method: as §4
The effectiveness of selected 3-biaryl ELQs and prodrugs was assessed vs the blood-stage infection for single-dose cures. Mice were infected iv with 3.5 × 10^4P. yoelii infected RBCs as described for the 4 day test above. Drug administration occurred on the day after inoculation (day 1). Test agents were dissolved in PEG-400 and administered ig once. On the fifth day, blood films were prepared, and % parasitemia was assessed. Animals remaining parasite-free for 30 days after drug administration were considered cured. The initial dosing range was 0.25, 0.5, 1, 3, and 10 mg/kg, including a control. Experiments were performed with four mice per group to ensure statistical accuracy. The reported parameter for these studies is the lowest single dose that provides a cure to all four animals in the group.

[13] = test system: P. falciparum ELQ-300-resistant D1 clone; experiment: microbe, parasite or virus in culture; type: cell-based; details: Plasmodium falciparum, 72 h, read-out: P. falciparum IC50 values, D1
[14] = male, CD1, mouse, plasma, po, 10 mg/kg, single ELQ-598 dose 10 mg/kg PO (PEG400), read-out: Tmax
[15] = male, CD1, mouse, plasma, po, 10 mg/kg
[16] = male, CD1, plasma, single ELQ-598 dose 0.3 mg/kg IV
[17] = male, CD1, plasma, single ELQ-598 dose 10 mg/kg PO, read-out: CL/F (converted)
[18] = male, CD1, single ELQ-598 dose 0.3 mg/kg IV
[19] = male, CD1, single ELQ-598 dose 0.3 mg/kg IV, elimination
[20] = male, CD1, single ELQ-598 dose 10 mg/kg PO
[21] = male, CD1, single ELQ-598 dose 10 mg/kg PO (PEG400)
[22] = male, CD1, single ELQ-598 dose 10 mg/kg PO, apparent elimination
[23] = single ELQ-598 dose 0.3 mg/kg IV
[24] = single ELQ-598 dose 10 mg/kg PO

Structure (SMILES) | EC50 [1] [nM] | IC50 [2] [nM] | blood stage in vivo efficacy, 4 day Peters test results, NRD (nonrecrudescence dose) [4] [mg/kg/day] | blood stage in vivo efficacy, 4 day Peters test results, ED50 [4] [mg/kg/day] | blood stage in vivo efficacy, 4 day Peters test results, ED90 [4] [mg/kg/day] | IC50 [5] [nM] | Tmax [8, 14] [h] | bioavailability [8, 15] [%] | Vd [8, 16] [L/kg] | CL/F [8, 17] [mL/min/kg] | AUC(0-inf) [8, 18] [ng·h/mL] | half-life [8, 19] [h] | AUC(0-inf) [8, 20] [ng·h/mL] | Cmax [8, 21] [ng/mL] | half-life [8, 22] [h] | CL/F [8, 23] [mL/min/kg] | Vdarea/F [8, 23] [L/kg] | Vdarea/F [8, 24] [L/kg] | IC50 [9] [nM] | further results
CCCCCC[C@H]1C(=O)O[C@H](C)[C@H](NC(=O)c2cccc(NC=O)c2O)C(=O)O[C@@H](C)[C@@H]1OC(=O)CC(C)C [Antimycin A, reference compound] | < 156 |  |  |  |  |  |  |  |  |  |  |  |  |  |  |  |  |  |  | 
COc1cc2[nH]c(C)c(-c3ccc(-c4ccc(OC(F)(F)F)cc4)cc3)c(=O)c2cc1Cl [ELQ-596, 6-Chloro-7-methoxy-2-methyl-3-(4′-(trifluoromethoxy)-[1,1′-biphenyl]-4-yl)quinolin-4(1H)-one] | > 10000 | 0.7 | 0.3 | 0.01 | 0.021 | 1.4 | 4 | 73 | 0.78 | 0.283 | 12200 | 27.4 | 484000 | 6680 | 45.7 | 0.333 | 0.81 | 1.11 | 1.6 | half-life at 1 μM [3]: > 66.7 h; half-life at 1 μM [6]: > 66.7 h; half-life at 1 μM [7]: > 66.7 h; k el ([8]; male, CD1, in vivo, single ELQ-598 dose 0.3 mg/kg IV): 6.94e-06 s⁻¹; k el ([8]; male, CD1, in vivo, single ELQ-598 dose 10 mg/kg PO (PEG400)): 4.17e-06 s⁻¹; Tmax ([8]; male, CD1, mouse, plasma, iv, 0.3 mg/kg, single ELQ-598 dose 0.3 mg/kg IV, read-out: Tmax): 4 h; Cmax [8, 18]: 303 ng/mL; Cmax [8, 20]: 14.5 µM; Tmax ([8]; single ELQ-598 dose 0.3 mg/kg IV, 0.3 mg/kg): 2 h; EC50 at 24 h [10]: > 10000 nM; IC50 at 24 h [10]: > 10000 nM
CCOC(=O)OCOc1c(-c2ccc(-c3ccc(OC(F)(F)F)cc3)cc2)c(C)nc2cc(OC)c(Cl)cc12 [ELQ-598, (((6-Chloro-7-methoxy-2-methyl-3-(4′-(trifluoromethoxy)-[1,1′-biphenyl]-4-yl)quinolin-4-yl)oxy)methylethyl carbonate] |  | 0.8 | 0.12 | 0.005 | 0.0065 | 1.5 | ≤ 2 | 0.26 | 0.09 | 398 | 757 | 0.74 | 419 | 79.4 | 5 | 6.67 | 0.42 | 173.5 | 4.4 | appearance, behavioral, or weight changes after dosing ([4]; in vivo): no appearance, behavioral, or weight changes observed; liver stage in vivo, # mice protected/total [11]: complete protection and 4/4; animals protected by single dose ([12]; 0.25 mg/kg single oral dose, four mice): two of four; effectiveness as single dose cure agent compared to ELQ-331 ([12]; blood-stage P. yoelii in mice): ~10 times; blood stage in vivo efficacy, single dose cure ([12]; lowest single oral dose curing all four mice, day 30): 0.3 mg/kg/day; lowest fully protective single dose cure ([12]; single oral dose day 1, aparasitemic day 30, four mice, parent-drug equivalent): 0.3 mg/kg; k el [8, 18]: 0.000258 s⁻¹; k el [8, 21]: 3.89e-05 s⁻¹; AUCratio (molar AUC ELQ-598/AUC ELQ-596) [8, 23]: 5.1%; AUCratio (molar AUC ELQ-598/AUC ELQ-596) [8, 24]: 0.07%; IC50 at 24 h ([10]; HepG2 cells): > 10000 nM; IC50 [13]: 734 nM
